Experimental data from US3996150A, “Ester compounds” (Lever Brothers Company, priority 1975, dated 1976).

Experiments:
[1] = Terg-O-Tometer stain removal test of detergent product containing the detergent solvent, rated visually; design: key: 0: complete removal; 1: Very slight remaining stain; 2: Slight remaining stain; 3: Moderate stain removal; 4: Poor stain removal; 5: Very poor stain removal; 6: Equal to original stain; conditions: 4.0% detergent solvent in detergent product; 5% solution 15 min, then 20 min wash at 0.144%; 120° F, 180 ppm hardness
Experimental: Four Dacron/cotton (65-35%) Khaki permanent press (Pants weight) test pieces (41/2 inches×6 inches) are first soiled by adding 3 drops of dirty crankcase motor oil on the center of the cloth and the stain allowed to set for one hour. The test cloths are then washed in the Terg-O-Tometerat 120° F, 180 ppm (2:1 Ca^+^+/Mg^+^+) hardness, 90 cycles per minute agitation, with a 5% solution of the detergent product described below (i.e., 50 g/liter) for 15 minutes and then hand squeezed to remove excess water. Finally the cloths are given a 20 minute wash at the standard use level (e.g. 0.144%) under the same conditions followed by a 1 minute rinse. After drying the washed cloths, the degree of stain removal is rated visually according to the scale below:
1 = Very slight remaining stain
2 = Slight remaining stain
3 = Moderate stain removal
5 = Very poor stain removal
6 = Equal to original stain
Ten such formulations utilizing the following "Detergent Solvents" were prepared and evaluated as described above: […]

[2] = Cold resistance of plasticized polyvinyl chloride film; format: physicochemical; conditions: PVC film 1.3 mm, 65 parts plasticizer per 100 parts S-PVC resin
Experimental: Tri(2-ethylhexyl) carboxymethyloxysuccinate was incorporated as a plasticizer in the preparation of polyvinyl chloride film as follows
Using a mixing roller at 170° (7 min.) followed by post-pressing the film at 170° C under contact pressure for 2 minutes, a good plasticized film (1.3 mm) of polyvinyl chloride was obtained. Cold resistance was -39° C compared to -36° C for a control PVC film made using di-2-ethylhexyl phthalate (DOP) as the plasticizer.

[3] = parent compound from which the esters are derived; cited from earlier work
[4] = parent compound from which the esters are derived; cited from earlier work; remark: listed apart in the source
[5] = under both aerobic and anaerobic conditions; cited from earlier work

SMILES | Visual Grading Code (degree of stain removal) [1] | also measured
CCCCOC(=O)c1ccccc1C(=O)OCCCC [A, dibutyl phthalate, reference compound] | 2 | 
COC(=O)COC(CC(=O)OC)C(=O)OC (centres unmarked) [B, trimethyl carboxymethyloxysuccinate] | 2 | 
CCOC(=O)COC(CC(=O)OCC)C(=O)OCC (centres unmarked) [C, triethyl carboxymethyloxysuccinate] | 1 | 
CCCOC(=O)COC(CC(=O)OCCC)C(=O)OCCC (centres unmarked) [D, tripropyl carboxymethyloxysuccinate] | 1 | 
CCCCOC(=O)COC(CC(=O)OCCCC)C(=O)OCCCC (centres unmarked) [E, tributyl carboxymethyloxysuccinate] | 2 | 
CCCCCCOC(=O)COC(CC(=O)OCCCCCC)C(=O)OCCCCCC (centres unmarked) [F, trihexyl carboxymethyloxysuccinate] | 1 | 
CCCCC(CC)COC(=O)COC(CC(=O)OCC(CC)CCCC)C(=O)OCC(CC)CCCC (centres unmarked) [G, tri(2-ethylhexyl) carboxymethyloxysuccinate] | 2 | Cold resistance [2]: -39 °C
CCCCCCCCOC(=O)COC(CC(=O)OCCCCCCCC)C(=O)OCCCCCCCC (centres unmarked) [H, trioctyl carboxymethyloxysuccinate] | 2 | 
CCCCCCCCCCCCOC(=O)COC(CC(=O)OCCCCCCCCCCCC)C(=O)OCCCCCCCCCCCC (centres unmarked) [J, tridodecyl carboxymethyloxysuccinate] | 2 | 
O=C(O)COC(CC(=O)O)C(=O)O (centres unmarked) [carboxymethyloxysuccinic acid] |  | toxicity [3]: non-toxic; teratogenicity [4]: non-teratogenic; biodegradability [5]: completely biodegradable
CCCCC(CC)COC(=O)c1ccccc1C(=O)OCC(CC)CCCC (centres unmarked) [di-2-ethylhexyl phthalate, reference compound] |  | Cold resistance [2]: -36 °C
